Like-named read-outs stand apart in the source and are kept apart here.
Legend:
[1] = Stability in phosphate buffered saline by reverse phase HPLC (FIG. 4); assay type: physicochemical; details: PBS pH 7.4, 100 μM; for half-life at 100 μM: phosphate buffered saline, samples at 2, 20 and 90 hours
Description: One of the primary problems of the currently clinically used DNA hypomethylators 5-aza-dCyd and 5-azacytidine is the rapid degradation of these compounds by ring opening of the 5-azacytosine ring in aqueous solutions. Whether a 4′-thio modification would enhance the stability of 5-azacytosine relative to the 4′-oxonucleoside was tested (FIG. 4). In side-by-side experiments, the compounds were dissolved in PBS (phosphate buffered solution, pH 7.4) at a concentration of 100 μM. A sample was removed from each solution 2, 20, and 90 hours after addition of the drug and the concentrations of 5-aza-T-dCyd or 5-aza-dCyd were determined by reverse phase HPLC.

DNMT1 = DNMT1 protein levels by western blot in drug-treated KG1a cells; assay type: cell-based, human
Description: Cells were incubated with drugs for the indicated times and analyzed by western blot. (*ns indicates a non-specific band used as a loading control).

tumors = assay: Anti-tumor activity of 5-aza-T-dCyd in in vivo tumor model (FIG. 6); details: mice, q1dx9; tumor size decreased several days after end of dosing
Description: (§1) Preliminary in vivo evaluation of the anti-tumor activity of T-dCyd and 5-aza-T-dCyd in mice was also conducted (FIG. 5 and FIG. 6). T-dCyd was tested against human lung NCI-H23 (FIG. 5), and also in DLD-1 colon tumor xenografts (not shown). […] However the 9-day treatment schedule is a classical schedule for a cytotoxic anticancer agent. T-dCyd as a potential DNA hypomethylating agent has not been evaluated in tumor models.
Again, the schedule in this experiment (q1dx9) was also not designed based on the supposed mechanism of action of this agent, but was designed based on a classical cytotoxic nucleoside analog, as in the case of T-dCyd. […] This type of compound might best be used in combination with other chemotherapy as a maintenance therapy. Thus, in the clinic one could envision treatment first with cytotoxic agents to kill a large percentage of rapidly dividing tumor cells, followed by treatment with non-toxic doses of hypomethylating agents for longer time periods. In a similar vein one could envisage treatment with non-toxic DNA hypomethylating agents in chemoprevention settings.

[2] = test system: KG1a human myeloid leukemia cells; assay: Incorporation into DNA in KG1a human myeloid leukemia cells (FIG. 3); assay type: cell-based; details: 300 nM, 4 h of incubation
CEM leukemia cells = assay: Incorporation of [5-3H]-labelled compound into DNA of CEM leukemia cells (FIG. 2); assay type: cell-based, human; details: 100 nM of [5-3H]-labelled compound
Description: (§2) In particular, FIG. 2 refers to an experiment where CEM leukemia cells were incubated with 100 nM of [5-^3H]T-dCyd, [5-^3H]dCyd, [5-^3H]araC or [5-^3H]T-araC and the incorporation of compound into the DNA was determined. […] In contrast much less araC (or T-araC) was incorporated into the DNA. Although araCTP (or T araCTP) are also good substrates for DNA polymerases, they are known to inhibit subsequent DNA chain elongation and thereby inhibit DNA replication. […] The concentration of T-dCyd or araC required to inhibit CEM cell growth by 50% after 72 hours of incubation was 2.2 or 0.006 μM, respectively.

CEM cell = assay: Inhibition of CEM cell growth; assay type: cell-based, human; details: after 72 hours of incubation, read-out: concentration required to inhibit CEM cell growth by 50%
Description: as §2

CEM cells = assay: Metabolism of dCyd or T-dCyd in CEM cells; assay type: in vitro ADME, human; details: 100 nM, 1 hour
Description: The metabolites that were produced in CEM cells treated with either [5-^3H]dCyd or [5-^3H]T-dCyd were also determined (Table 1). Cells were treated with 100 nM of each compound for 1 hour and the medium and cells were extracted to determine the major metabolites that were formed. The medium was analyzed by reverse phase HPLC to measure the parent compound, deaminated product, or [^3H]-water. The acid-soluble extract was analyzed by strong anion exchange HPLC to measure the intracellular concentration of nucleotide metabolites. The radioactivity in the acid-insoluble fraction represents the amount of compound that was incorporated into DNA. […] (Note: Because dCyd was labeled at the 5 position, the [^3H] was removed from the molecule by thymidylate synthase in the process of adding a methyl group to this position. Accordingly, there will be no radioactivity in thymidine nucleotides generated from [5-^3H]dCyd).

human lung NCI-H23 = assay: Anti-tumor activity against human lung NCI-H23 tumor xenografts in mice (FIG. 5); assay type: in vivo
Description: as §1

[3] = Maximum tolerated dose (MTD) in mice; details: mouse, in vivo
Description: as §1

[4] = similar experiments, FIG. 1B or not shown
[5] = 1.3 mg/kg (MTD0.65), 9 day treatment, NCI-H23 tumors in mice

| half-life at 100 μM [1] [h] | SMILES | incorporation into DNA [2] | effect on DNMT1 protein level (DNMT1; [4]) | incorporation of compound into the DNA (CEM leukemia cells) | [3H] in DNA (CEM cells) | [3H] in parent compound (CEM cells) | also measured |
| --- | --- | --- | --- | --- | --- | --- | --- |
| 293 | Nc1ncn([C@H]2C[C@H](O)[C@@H](CO)S2)c(=O)n1 [5-aza-T-dCyd, 5-aza-4′-thio-2′-deoxycytidine] | – | – | – | – | – | stability in PBS relative to 5-aza-dCyd [1]: 5 fold; effect on DNMT1 protein level (DNMT1; doses as low as 0.1 μM, exposed for 72 or 96 h, FIG. 1E): complete depletion of DNMT1; effect on DNMT1 protein level (DNMT1; similar exposures for as little as 48 h, FIG. 1C): completely depleted DNMT1; tumor growth inhibition (tumors): substantially inhibited the growth of the tumors |
| 67 | Nc1ncn([C@H]2C[C@H](O)[C@@H](CO)O2)c(=O)n1 [5-azadCyd, 5-aza-2′-deoxycytidine, reference compound] | only a moderate amount | depleting DNMT1 | – | – | – | – |
| – | Nc1ccn([C@@H]2S[C@H](CO)[C@@H](O)[C@@H]2O)c(=O)n1 [T-araC, 4′-thio-arabinofuranosylcytosine, reference compound] | – | did not deplete DNMT1 | much less | – | – | – |
| – | Nc1ccn([C@H]2C[C@H](O)[C@@H](CO)S2)c(=O)n1 [T-dCyd, 4′-thio-2′-deoxycytidine] | rapidly incorporated to very high levels | – | more T-dCyd was incorporated into the DNA than dCyd | 8% of total | 90% of total | IC50 (CEM cell; Homo sapiens, CCRF-CEM): 2200 nM; radioactivity recovered as water in the medium, T-dUrd in the medium, or T-dUMP in the acid-soluble pool (CEM cells): none; in vivo anti-tumor activity (human lung NCI-H23; 0.9 mg/kg (MTD0.45) and 0.6 mg/kg (MTD0.3), 9 day treatment schedule): some encouraging in vivo activity; complete cures (human lung NCI-H23; [5]): 2/6; tumor growth inhibition (human lung NCI-H23; [5]): substantial growth inhibition; MTD at 9 day [3]: 2 mg/kg; effect on DNMT1 protein level (DNMT1; 72 h at the 3 μM dose, FIG. 1D): complete depletion of DNMT1; effect on DNMT1 protein level (DNMT1; 72 hour exposure at low non-toxic doses, FIG. 1A): capable of reducing DNMT1; effect on DNMT1 protein level (DNMT1; 96 h at the 1 and 3 μM doses, FIG. 1D): complete depletion of DNMT1 |
| – | Nc1ccn([C@@H]2O[C@H](CO)[C@@H](O)[C@@H]2O)c(=O)n1 [araC, arabinofuranosylcytosine, reference compound] | – | did not deplete DNMT1 | much less | – | – | IC50 (CEM cell): 6 nM |
| – | Nc1ccn([C@H]2C[C@H](O)[C@@H](CO)O2)c(=O)n1 [dCyd, 2′-deoxycytidine, reference compound] | – | – | – | 3% of total | 38% of total | – |
